In ChEMBL document CHEMBL1201862, “PubChem BioAssay data set” (2004):
The source made the active and inactive calls.

Experiments:
[1] = molecular target: T1, Tyrosine-protein phosphatase non-receptor type 7 (Homo sapiens, UniProt P35236); assay: redox-dependent HePTP inhibition, mechanism study, biochemical, fluorescence (AID 2068); type: functional
T1 sequence (P35236 whole entry): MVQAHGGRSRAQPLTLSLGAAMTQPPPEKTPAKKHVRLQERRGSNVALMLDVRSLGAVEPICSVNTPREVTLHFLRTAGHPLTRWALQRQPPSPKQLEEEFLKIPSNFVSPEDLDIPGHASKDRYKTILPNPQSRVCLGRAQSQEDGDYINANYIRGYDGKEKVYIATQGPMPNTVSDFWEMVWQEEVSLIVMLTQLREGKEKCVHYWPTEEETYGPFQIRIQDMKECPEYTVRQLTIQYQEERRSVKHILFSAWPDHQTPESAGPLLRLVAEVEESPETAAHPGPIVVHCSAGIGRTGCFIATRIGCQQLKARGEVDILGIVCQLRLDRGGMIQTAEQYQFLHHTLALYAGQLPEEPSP

[2] = molecular target: T2, Dual specificity protein phosphatase 3 (Homo sapiens, UniProt P51452); assay: SAR VHR1 Fluorescent Assay for In Vitro dose response studies Set 2. [Related pubchem assays (depositor defined):AID1654, AID1661, AID1878]; type: functional
[3] = molecular target: T2, Dual specificity protein phosphatase 3; assay: VHR1 phosphatase inhibitors, biochemical (AID 1878)
[4] = molecular target: Small ubiquitin-related modifier 1 (Homo sapiens, UniProt P63165); assay: inhibitors of SUMO1 peptide binding, dose response, biochemical, fluorescence polarization, uHTS hits (AID 624382); type: functional; conditions: read-out: IC50_Mean
[5] = molecular target: T2, Dual specificity protein phosphatase 3; assay: SAR VHR1 Fluorescent Assay for In Vitro dose response studies. [Related pubchem assays (depositor defined):AID1654, AID1661, AID1878, AID1992, AID2004, AID2070, AID2085]; type: functional
[6] = molecular target: T1, Tyrosine-protein phosphatase non-receptor type 7; assay: HTS HePTP Fluorescent Assay using OMFP substrate for In Vitro dose response studies. [Related pubchem assays (depositor defined):AID1059, AID1077, AID1784, AID2068, AID2085, AID435032, AID521]; type: functional
[7] = molecular target: 72 kDa type IV collagenase (Homo sapiens, UniProt P08253); assay: Dose Response validation of uHTS RPN11 inhibitor hits using a MMP-2 Fluorescence assay.; type: functional
[8] = molecular target: T1, Tyrosine-protein phosphatase non-receptor type 7; type: functional
[9] = molecular target: T2, Dual specificity protein phosphatase 3; assay: VHR1 phosphatase inhibitors, primary screen, biochemical, absorbance, uHTS (AID 1654)
[10] = molecular target: T3, Tyrosyl-DNA phosphodiesterase 2 (Homo sapiens, UniProt O95551); assay: human TDP2 enzyme inhibitors, dose response, biochemical, epi absorbance, IC50 (AID 743297)
T3 sequence (O95551 whole entry): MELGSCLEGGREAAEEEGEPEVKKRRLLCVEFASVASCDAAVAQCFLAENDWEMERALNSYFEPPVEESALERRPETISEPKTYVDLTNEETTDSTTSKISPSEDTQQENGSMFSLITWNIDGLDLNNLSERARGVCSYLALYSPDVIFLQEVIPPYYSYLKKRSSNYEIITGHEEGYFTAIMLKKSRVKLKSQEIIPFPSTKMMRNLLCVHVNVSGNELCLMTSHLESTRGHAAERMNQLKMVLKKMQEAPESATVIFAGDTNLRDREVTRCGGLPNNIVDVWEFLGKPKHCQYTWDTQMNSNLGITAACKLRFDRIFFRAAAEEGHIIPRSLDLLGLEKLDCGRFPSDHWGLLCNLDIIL

Protein RecA = molecular target: T4, Protein RecA (Mycobacterium tuberculosis, UniProt P9WHJ3); assay: Fluorescence Cell-Free Homogeneous Dose Retest to Identify Inhibitors of RecA-Intein Splicing Activity. [Related pubchem assays (depositor defined):AID2097, AID2223, AID489010, AID492950]; type: functional
T4 sequence (P9WHJ3 whole entry): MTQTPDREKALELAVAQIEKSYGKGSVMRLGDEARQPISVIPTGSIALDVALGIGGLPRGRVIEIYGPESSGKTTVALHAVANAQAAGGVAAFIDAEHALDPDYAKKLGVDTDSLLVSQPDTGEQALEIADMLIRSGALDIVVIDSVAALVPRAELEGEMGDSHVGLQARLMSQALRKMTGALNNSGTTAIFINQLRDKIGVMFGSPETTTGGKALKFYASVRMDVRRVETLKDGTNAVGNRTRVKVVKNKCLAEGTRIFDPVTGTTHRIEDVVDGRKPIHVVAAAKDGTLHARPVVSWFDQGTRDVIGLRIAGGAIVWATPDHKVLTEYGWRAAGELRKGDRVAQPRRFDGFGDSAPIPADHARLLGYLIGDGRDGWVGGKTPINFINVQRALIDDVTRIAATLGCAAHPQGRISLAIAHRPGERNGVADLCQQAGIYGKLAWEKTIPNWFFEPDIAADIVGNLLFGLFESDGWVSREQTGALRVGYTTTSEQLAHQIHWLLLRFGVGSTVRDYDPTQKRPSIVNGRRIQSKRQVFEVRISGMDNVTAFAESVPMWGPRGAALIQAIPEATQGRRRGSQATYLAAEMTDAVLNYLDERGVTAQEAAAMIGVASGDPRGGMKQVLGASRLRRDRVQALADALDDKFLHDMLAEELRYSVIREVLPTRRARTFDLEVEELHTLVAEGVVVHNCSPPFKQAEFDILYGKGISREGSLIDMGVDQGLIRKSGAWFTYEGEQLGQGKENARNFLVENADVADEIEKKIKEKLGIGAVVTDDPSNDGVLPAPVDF

T2 sequence (P51452 whole entry): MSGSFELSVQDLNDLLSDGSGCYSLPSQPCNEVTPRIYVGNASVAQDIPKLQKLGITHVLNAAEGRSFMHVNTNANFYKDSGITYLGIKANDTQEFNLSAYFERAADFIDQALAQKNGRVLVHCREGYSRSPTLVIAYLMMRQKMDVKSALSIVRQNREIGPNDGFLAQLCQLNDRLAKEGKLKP
Small ubiquitin-related modifier 1, sequence (P63165 whole entry): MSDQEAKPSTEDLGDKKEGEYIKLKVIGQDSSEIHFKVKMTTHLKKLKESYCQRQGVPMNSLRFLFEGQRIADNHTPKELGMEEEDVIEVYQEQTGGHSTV
72 kDa type IV collagenase, sequence (P08253 whole entry): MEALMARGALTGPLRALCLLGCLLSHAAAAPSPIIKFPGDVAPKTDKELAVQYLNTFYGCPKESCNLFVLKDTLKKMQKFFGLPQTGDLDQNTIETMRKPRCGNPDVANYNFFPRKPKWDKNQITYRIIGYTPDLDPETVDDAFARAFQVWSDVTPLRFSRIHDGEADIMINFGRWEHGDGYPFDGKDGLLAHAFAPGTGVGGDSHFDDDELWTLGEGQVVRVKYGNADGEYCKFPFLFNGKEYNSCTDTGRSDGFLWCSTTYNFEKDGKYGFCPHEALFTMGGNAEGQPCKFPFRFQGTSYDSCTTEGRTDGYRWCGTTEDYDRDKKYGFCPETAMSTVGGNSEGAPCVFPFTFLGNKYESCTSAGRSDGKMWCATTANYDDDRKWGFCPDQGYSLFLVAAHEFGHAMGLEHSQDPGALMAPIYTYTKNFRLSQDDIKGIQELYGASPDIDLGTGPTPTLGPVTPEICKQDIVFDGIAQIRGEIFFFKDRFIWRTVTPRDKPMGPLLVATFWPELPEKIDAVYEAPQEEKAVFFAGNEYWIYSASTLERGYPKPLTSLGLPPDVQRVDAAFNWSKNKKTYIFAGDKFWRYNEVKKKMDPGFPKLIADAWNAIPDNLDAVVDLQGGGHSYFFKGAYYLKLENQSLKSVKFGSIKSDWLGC

CCOC(=O)c1sc2nc3c(SCC(=O)O)cc(C(=O)c4ccccc4O)cn3c(=O)c2c1C
IC50 [1]: 0.105 µM (active)
IC50 [2]: 0.218 µM (active)
IC50 [3]: 3.69 µM (active)
IC50 [4]: > 66.6 µM (inactive)
IC50 [5]: 0.382 µM (active)
IC50 [6]: > 99 µM (inactive)
IC50 [7]: 0.821 µM (active)
IC50 [8]: < 1.24 µM (active)
IC50 [9]: 4.64 µM (active)

C=CCn1c(NC(=O)c2ccccc2Cl)c(C#N)c2nc3ccccc3nc21
IC50 [10]: > 128 µM (inactive)

CCOC(=O)c1ccc(Nc2cc3ccccc3c(O)n2)cc1
EC50 (Protein RecA): 9.12 µM (active)
